From US20230278972A1, “SUBSTITUTED HALOALKYL SULFONANILIDE HERBICIDES” (FMC Corporation, priority 2020, published 2023)

Tests used:
[1] = system: ragweed (common ragweed, Ambrosia artemisiifolia); assay: Test A postemergence, ragweed; type: in vivo; settings: Ambrosia artemisiifolia, post-emergence, 240 h, read-out: Plant response rating, Ragweed
How it was run: (§1)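 Seeds are sown in loam mixed with sand and sprayed on the soil surface right after planting for the preemergence test. Postemergence pots are sprayed once seedlings reach 2 to 10 cm at the one- to two-leaf stage. The same surfactant-containing, non-phytotoxic solvent formulation serves both.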

[2] = system: Foxtail, Giant (giant foxtail, Setaria faberi); assay: Test A postemergence, Foxtail, Giant; type: in vivo; settings: Setaria faberi, post-emergence, 240 h, read-out: Plant response rating, Foxtail, Giant
How it was run: as §1

[3] = system: pigweed (Amaranthus retroflexus); assay: Test A postemergence, pigweed; type: in vivo; settings: Amaranthus retroflexus, post-emergence, 240 h, read-out: Plant response rating, Pigweed
How it was run: as §1

[4] = system: barnyardgrass (Echinochloa crus-galli); assay: Test B flooded paddy test, barnyardgrass; settings: 336 h, read-out: Plant response rating, Barnyardgrass
[5] = system: wheat (Triticum aestivum); assay: Test A postemergence, wheat; type: in vivo; settings: Triticum aestivum, post-emergence, 240 h, read-out: Plant response rating, Wheat
How it was run: (§2)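 Preemergence: pigweed seeds in loam soil–sand blend received a directed soil spray of test chemicals in a non-phytotoxic solvent with surfactant. Postemergence: barnyardgrass, wheat and galium in pots of the same soil, 2 to 10 cm tall at one- to two-leaf stage, sprayed with the same formulation.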

rice (Oryza sativa) = assay: Test B flooded paddy test, rice; settings: 336 h, read-out: Plant response rating, Rice
corn (Zea mays) = assay: Test A postemergence, corn; type: in vivo; settings: Zea mays, post-emergence, 240 h, read-out: Plant response rating, Corn
How it was run: as §1

[6] = system: Ryegrass, Italian (Italian ryegrass, Lolium multiflorum); assay: Test A preemergence, Ryegrass, Italian; type: in vivo; settings: Lolium multiflorum, pre-emergence, 240 h
How it was run: as §1

kochia (Bassia scoparia) [7] = assay: Test A preemergence, kochia; type: in vivo; settings: Bassia scoparia, pre-emergence, 240 h
How it was run: as §1

kochia (Bassia scoparia) [8] = assay: Test A postemergence, kochia; type: in vivo; settings: Bassia scoparia, post-emergence, 240 h, read-out: Plant response rating, Kochia
How it was run: as §1

[9] = system: barnyardgrass (Echinochloa crus-galli); assay: Test A preemergence, barnyardgrass; type: in vivo; settings: Echinochloa crus-galli, pre-emergence, 240 h
How it was run: as §1

[10] = system: Ryegrass, Italian (Italian ryegrass, Lolium multiflorum); assay: Test A postemergence, Ryegrass, Italian; type: in vivo; settings: Lolium multiflorum, post-emergence, 240 h, read-out: Plant response rating, Ryegrass, Italian
How it was run: as §1

[11] = system: galium (catchweed bedstraw, Galium aparine); assay: Test A postemergence, galium; type: in vivo; settings: Galium, post-emergence, 240 h, read-out: Plant response rating, Galium
How it was run: as §2

[12] = system: ragweed (common ragweed, Ambrosia artemisiifolia); assay: Test A preemergence, ragweed; type: in vivo; settings: Ambrosia artemisiifolia, pre-emergence, 240 h
How it was run: as §1

[13] = system: blackgrass (Alopecurus myosuroides); assay: Test A postemergence, blackgrass; type: in vivo; settings: Alopecurus myosuroides, post-emergence, 240 h, read-out: Plant response rating, Blackgrass
How it was run: as §1

[14] = system: Foxtail, Giant (giant foxtail, Setaria faberi); assay: Test A preemergence, Foxtail, Giant; type: in vivo; settings: Setaria faberi, pre-emergence, 240 h
How it was run: as §1

[15] = system: ducksalad (Heteranthera limosa); assay: Test B flooded paddy test, ducksalad; settings: 336 h, read-out: Plant response rating, Ducksalad
[16] = system: barnyardgrass (Echinochloa crus-galli); assay: Test A postemergence, barnyardgrass; type: in vivo; settings: Echinochloa crus-galli, post-emergence, 240 h, read-out: Plant response rating, Barnyardgrass
How it was run: as §2

For `Cc1cc(C)c(N2CCC3(CCCCC3)C2=O)cc1NS(=O)(=O)C(F)(F)F` [Compound 278, N-[2,4-Dimethyl-5-(1-oxo-2-azaspiro[4.5]dec-2-yl)phenyl]-1,1,1-trifluoromethanesulfonamide], which pest or weed control at 125 g/ha [1] is on record?
Its pest or weed control at 125 g/ha is 40%.

And the pest or weed control at 500 g/ha [1]?
Its pest or weed control at 500 g/ha is 60%.

What about the pest or weed control at 125 g/ha [2] of the same molecule?
The pest or weed control at 125 g/ha was 0%.

What about the pest or weed control at 500 g/ha [2] of the same molecule?
Its pest or weed control at 500 g/ha is 20%.

And the pest or weed control at 125 g/ha [3]?
Its pest or weed control at 125 g/ha is 60%.

What about the pest or weed control at 500 g/ha [3] of the same molecule?
The pest or weed control at 500 g/ha was 90%.

What about the pest or weed control at 250 g/ha [4] of the same molecule?
Its pest or weed control at 250 g/ha is 0%.

And the plant injury at 125 g/ha [5]?
Its plant injury at 125 g/ha is 60%.

And the plant injury at 500 g/ha [5]?
The plant injury at 500 g/ha was 70%.

What about the plant injury at 250 g/ha (rice (Oryza sativa)) of the same molecule?
Its plant injury at 250 g/ha is 15%.

What about the plant injury at 125 g/ha (corn (Zea mays)) of the same molecule?
The plant injury at 125 g/ha was 0%.

And the plant injury at 500 g/ha (corn (Zea mays))?
The plant injury at 500 g/ha was 30%.

What about the pest or weed control at 125 g/ha ([6]; read-out: Plant response rating, Ryegrass, Italian) of the same molecule?
Its pest or weed control at 125 g/ha is 100%.

And the pest or weed control at 500 g/ha ([6]; read-out: Ryegrass, Italian plant response rating)?
The pest or weed control at 500 g/ha was 100%.

What about the pest or weed control at 500 g/ha (kochia (Bassia scoparia) [7]; read-out: Kochia plant response rating) of the same molecule?
The pest or weed control at 500 g/ha was 100%.

And the pest or weed control at 125 g/ha (kochia (Bassia scoparia) [7]; read-out: Plant response rating, Kochia)?
The pest or weed control at 125 g/ha was 90%.

And the pest or weed control at 125 g/ha (kochia (Bassia scoparia) [8])?
Its pest or weed control at 125 g/ha is 30%.

What about the pest or weed control at 500 g/ha (kochia (Bassia scoparia) [8]) of the same molecule?
Its pest or weed control at 500 g/ha is 70%.

What about the pest or weed control at 500 g/ha ([9]; read-out: Barnyardgrass plant response rating) of the same molecule?
The pest or weed control at 500 g/ha was 100%.

What about the pest or weed control at 125 g/ha ([9]; read-out: Plant response rating, Barnyardgrass) of the same molecule?
The pest or weed control at 125 g/ha was 60%.

What about the pest or weed control at 125 g/ha [10] of the same molecule?
The pest or weed control at 125 g/ha was 30%.

What about the pest or weed control at 500 g/ha [10] of the same molecule?
The pest or weed control at 500 g/ha was 80%.

And the pest or weed control at 125 g/ha [11]?
Its pest or weed control at 125 g/ha is 90%.

What about the pest or weed control at 500 g/ha [11] of the same molecule?
The pest or weed control at 500 g/ha was 90%.

And the pest or weed control at 125 g/ha ([12]; read-out: Plant response rating, Ragweed)?
Its pest or weed control at 125 g/ha is 90%.

What about the pest or weed control at 500 g/ha ([12]; read-out: Ragweed plant response rating) of the same molecule?
The pest or weed control at 500 g/ha was 100%.

What about the pest or weed control at 125 g/ha [13] of the same molecule?
Its pest or weed control at 125 g/ha is 0%.

What about the pest or weed control at 500 g/ha [13] of the same molecule?
The pest or weed control at 500 g/ha was 50%.

What about the pest or weed control at 500 g/ha ([14]; read-out: Foxtail, Giant plant response rating) of the same molecule?
Its pest or weed control at 500 g/ha is 100%.

And the pest or weed control at 125 g/ha ([14]; read-out: Plant response rating, Foxtail, Giant)?
Its pest or weed control at 125 g/ha is 60%.

And the pest or weed control at 250 g/ha [15]?
The pest or weed control at 250 g/ha was 85%.

And the pest or weed control at 125 g/ha [16]?
The pest or weed control at 125 g/ha was 20%.

And the pest or weed control at 500 g/ha [16]?
The pest or weed control at 500 g/ha was 80%.
